Experimental data: US8031338B2, “Measuring Forster resonance energy transfer with polarized and depolarized light” (Vanderbilt University, priority 2004, dated 2011)

Key:
[1] = system: COS-7 cells expressing SCAT3.1 (caspase-3 cleavage site); settings: COS-7 cells expressing SCAT3.1, 96-well plate; 10 μM H2O2 for 90 min; FIG. 6D
[2] = system: COS-7 cells expressing SCAT3.1 (caspase-3 cleavage site); test: A-FRET microscopy of SCAT 3.1 apoptosis sensor cleavage in live cells; type: cell-based; settings: COS-7 cells transfected with SCAT 3.1; imaged immediately after treatment and after 5 hours; FIG. 6A-C
Procedure: Sample Preparation. Beads from a 5 ml HiTRAP chelating HP column (Amersham Biosciences) were charged using a 0.1M NiSO (Rizzo and Piston, 2005) solution and washed with 50 mM TrisHCl. The beads were then labeled as described (Youvan et al., 1997) with purified mCerulean, mVenus, or a linker protein containing mVenus and mCerulean separated by the linker sequence […]. Histadine-tagged recombinant protein was bacterially expressed and purified as previously described (Rizzo et al., 2004). For living cell studies, plasmid DNA encoding FP constructs were introduced was into COS-7 cells using FUGENE (Roche) transfection reagent according to the manufacturer's instructions. […]
Fluorescence Imaging. […] Fluorescence emission was filtered through a 515-540 nm bandpass filter and 2 mm BGG22 glass prior to separation vertical and horizontal polarizations with a broadband polarizing cube beam splitter (Newport). […]
To test the ability of this approach to measure FRET changes in a live cell based assay, COS-7 cells were transfected with the apoptosis sensor, SCAT 3.1 (Nagai and Miyawaki, 2004), which consists of cyan and yellow FPs separated by a caspase-3 cleavage site (FIG. 6A). […] SCAT 3.1 cleavage was also monitored in cells grown on a 96-well plate. […] The use of an intrinsic parameter, such as anisotropy, enables absolute threshold values to be determined for occurrence of FRET during an assay. […]

Compound | overall anisotropy in the yellow emission channel, indicating caspase-3 activation [1] | emission in the yellow FP channel (polarization) following induction of apoptosis [2]
OO [hydrogen peroxide] | increase in the overall anisotropy | 
CN[C@@H]1C[C@H]2O[C@@](C)([C@@H]1OC)n1c3ccccc3c3c4c(c5c6ccccc6n2c5c31)C(=O)NC4 [staurosporine] |  | changes from highly depolarized fluorescence to highly polarized fluorescence
